In ChEMBL document CHEMBL3046682, “Synthesis of lactosylated piperazinyl porphyrins and their hepatocyte-selective targeting” (Med Chem Res, 2007):
≈ marks a conversion by molar mass, not a printed value.

Assays:
Zone of skin = assay: Biodistribution in tumor-bearing Mus musculus KM (mouse) skin at 10 mg/kg, ip after 3 to 24 hr by fluorescence assay; type: ADME, organism-based; set-up: dose 10 mg/kg, route intraperitoneal; conditions: in vivo
Liver [1] = assay: Biodistribution in tumor-bearing Mus musculus KM (mouse) liver at 10 mg/kg, ip after 144 hr by fluorescence assay; type: ADME, organism-based; set-up: dose 10 mg/kg, route intraperitoneal; conditions: in vivo
Liver [2] = assay: Biodistribution in tumor-bearing Mus musculus KM (mouse) liver at 10 mg/kg, ip after 3 to 24 hr by fluorescence assay; type: ADME, organism-based; set-up: dose 10 mg/kg, route intraperitoneal; conditions: in vivo
[3] = Solubility of the compound in water; type: physicochemical; conditions: buffer
[4] = Cytotoxicity against Homo sapiens (human) HNE1 cells assessed as cell death after 48 hr by MTT assay in absence of light; type: functional; conditions: HNE1, 48 h, read-out: ID50 (the source's name)
[5] = Cytotoxicity against Homo sapiens (human) MCG cells assessed as cell death after 48 hr by MTT assay in absence of light; type: functional; conditions: read-out: ID50 (the source's name)
[6] = Cytotoxicity against Homo sapiens (human) Bel7404 cells assessed as cell death after 48 hr by MTT assay in absence of light; type: functional; conditions: BEL-7404, 48 h, read-out: ID50 (the source's name)
[7] = Photocytotoxicity against Homo sapiens (human) HNE1 cells assessed as cell death at 6.25 ug/ml after 18 hr by MTT assay in presence of light; type: functional
[8] = Photocytotoxicity against Homo sapiens (human) MCG cells assessed as cell death at 6.25 ug/ml after 18 hr by MTT assay in presence of light; type: functional
[9] = Photocytotoxicity against Homo sapiens (human) Bel7404 cells assessed as cell death at 6.25 ug/ml after 18 hr by MTT assay in presence of light; type: functional, BEL-7404
[10] = Cytotoxicity against Homo sapiens (human) HNE1 cells assessed as cell death at 6.25 ug/ml after 18 hr by MTT assay in absence of light; type: functional
[11] = Cytotoxicity against Homo sapiens (human) MCG cells assessed as cell death at 6.25 ug/ml after 18 hr by MTT assay in absence of light; type: functional
[12] = Cytotoxicity against Homo sapiens (human) Bel7404 cells assessed as cell death at 6.25 ug/ml after 18 hr by MTT assay in absence of light; type: functional, BEL-7404

## O=C([C@H](O)[C@@H](O)[C@H](O[C@@H]1O[C@H](CO)[C@H](O)[C@H](O)[C@H]1O)[C@H](O)CO)N1CCN(c2ccc(-c3c4nc(c(-c5ccc(N6CCN(C(=O)[C@H](O)[C@@H](O)[C@H](O[C@@H]7O[C@H](CO)[C@H](O)[C@H](O)[C@H]7O)[C@H](O)CO)CC6)cc5)c5ccc([nH]5)c(-c5ccc(N6CCN(C(=O)[C@H](O)[C@@H](O)[C@H](O[C@@H]7O[C@H](CO)[C@H](O)[C@H](O)[C@H]7O)[C@H](O)CO)CC6)cc5)c5nc(c(-c6ccc(N7CCN(C(=O)[C@H](O)[C@@H](O)[C@H](O[C@@H]8O[C@H](CO)[C@H](O)[C@H](O)[C@H]8O)[C@H](O)CO)CC7)cc6)c6ccc3[nH]6)C=C5)C=C4)cc2)CC1
Zone of skin
  Drug uptake: Not Active
Liver [1]
  Drug uptake: Not Active
Liver [2]
  Drug uptake: Active

## C1=Cc2nc1c(-c1ccccc1)c1nc(c(-c3ccccc3)c3ccc([nH]3)c(-c3ccccc3)c3ccc([nH]3)c2-c2ccccc2)C=C1 [TETRAPHENYLPORPHYRIN]
[3]
  solubility: Insoluble
[4]
  IC50: > 50 µg/mL
[5]
  IC50: > 50 µg/mL
[6]
  IC50: > 50 µg/mL

## O=C([C@H](O)[C@@H](O)[C@H](O[C@@H]1O[C@H](CO)[C@H](O)[C@H](O)[C@H]1O)[C@H](O)CO)N1CCN(c2ccc(-c3c4nc(c(-c5ccccc5)c5ccc([nH]5)c(-c5ccccc5)c5nc(c(-c6ccccc6)c6ccc3[nH]6)C=C5)C=C4)cc2)CC1
[4]
  IC50: 46 µg/mL (≈ 44.3 µM)
[5]
  IC50: 48 µg/mL (≈ 46.2 µM)
[6]
  IC50: 43 µg/mL (≈ 41.4 µM)
[7]
  Activity: 75%
[8]
  Activity: 75%
[9]
  Activity: 75%
[10]
  Activity: 8%
[11]
  Activity: 8%
[12]
  Activity: 8%
